From ChEMBL document CHEMBL5724914, “Linking interpersonal differences in gut microbiota composition and drug biotransformation activity” (2024)

Settings: human gut metagenome, 24 h, 2 µM
Note: call rule not given here.

| Bacterial Biotransformation | Structure (SMILES) |
| --- | --- |
| Compound metabolized | COC(=O)Nc1nc2ccc(C(=O)c3ccccc3)cc2[nH]1 [MEBENDAZOLE] |
| Compound NOT metabolized | CC(C)(C(=O)O)c1ccc(C(O)CCCN2CCC(C(O)(c3ccccc3)c3ccccc3)CC2)cc1 (stereo not given) [FEXOFENADINE] |

Test: (§1) The drug is tested on Z-019 corresponding to rat gut metagenome with ENA study accession number: PRJEB37062 and ENA sample accession number: ERS12561818 for biotransformation under anaerobic condition. The drug concentrations were measured over 9 timepoints collected between 0 and 24 hours of incubation by liquid-chromatography-coupled mass spectrometry (LC–MS)
Settings: 2 µM

| Bacterial Biotransformation | Structure (SMILES) |
| --- | --- |
| Compound NOT metabolized | COC(=O)Nc1nc2ccc(C(=O)c3ccccc3)cc2[nH]1 [MEBENDAZOLE] |
| Compound NOT metabolized | CC(C)(C(=O)O)c1ccc(C(O)CCCN2CCC(C(O)(c3ccccc3)c3ccccc3)CC2)cc1 (stereo not given) [FEXOFENADINE] |

Settings: human gut metagenome, 24 h, 2 µM
Remark: another data set of the same source

| Bacterial Biotransformation | Structure (SMILES) |
| --- | --- |
| Compound metabolized | COC(=O)Nc1nc2ccc(C(=O)c3ccccc3)cc2[nH]1 [MEBENDAZOLE] |
| Compound NOT metabolized | CC(C)(C(=O)O)c1ccc(C(O)CCCN2CCC(C(O)(c3ccccc3)c3ccccc3)CC2)cc1 (stereo not given) [FEXOFENADINE] |

Test: as §1, with “on WLS-086” for “on Z-019”, “to human” for “to rat”, “number: ERS12561752” for “number: ERS12561818”
Settings: 2 µM

| Bacterial Biotransformation | Structure (SMILES) |
| --- | --- |
| Compound metabolized | COC(=O)Nc1nc2ccc(C(=O)c3ccccc3)cc2[nH]1 [MEBENDAZOLE] |
| Compound NOT metabolized | CC(C)(C(=O)O)c1ccc(C(O)CCCN2CCC(C(O)(c3ccccc3)c3ccccc3)CC2)cc1 (stereo not given) [FEXOFENADINE] |

Settings: human gut metagenome, 24 h, 2 µM
Remark: another data set of the same source

| Bacterial Biotransformation | Structure (SMILES) |
| --- | --- |
| Compound metabolized | COC(=O)Nc1nc2ccc(C(=O)c3ccccc3)cc2[nH]1 [MEBENDAZOLE] |
| Compound NOT metabolized | CC(C)(C(=O)O)c1ccc(C(O)CCCN2CCC(C(O)(c3ccccc3)c3ccccc3)CC2)cc1 (stereo not given) [FEXOFENADINE] |

Test: as §1, with “on WLS-310” for “on Z-019”, “to human” for “to rat”, “number: ERS12561785” for “number: ERS12561818”
Settings: 2 µM

| Bacterial Biotransformation | Structure (SMILES) |
| --- | --- |
| Compound metabolized | COC(=O)Nc1nc2ccc(C(=O)c3ccccc3)cc2[nH]1 [MEBENDAZOLE] |
| Compound NOT metabolized | CC(C)(C(=O)O)c1ccc(C(O)CCCN2CCC(C(O)(c3ccccc3)c3ccccc3)CC2)cc1 (stereo not given) [FEXOFENADINE] |

Settings: human gut metagenome, 24 h, 2 µM
Remark: another data set of the same source

| Bacterial Biotransformation | Structure (SMILES) |
| --- | --- |
| Compound metabolized | COC(=O)Nc1nc2ccc(C(=O)c3ccccc3)cc2[nH]1 [MEBENDAZOLE] |
| Compound NOT metabolized | CC(C)(C(=O)O)c1ccc(C(O)CCCN2CCC(C(O)(c3ccccc3)c3ccccc3)CC2)cc1 (stereo not given) [FEXOFENADINE] |

Settings: human gut metagenome, 24 h, 2 µM
Remark: another data set of the same source

| Bacterial Biotransformation | Structure (SMILES) |
| --- | --- |
| Compound metabolized | COC(=O)Nc1nc2ccc(C(=O)c3ccccc3)cc2[nH]1 [MEBENDAZOLE] |
| Compound NOT metabolized | CC(C)(C(=O)O)c1ccc(C(O)CCCN2CCC(C(O)(c3ccccc3)c3ccccc3)CC2)cc1 (stereo not given) [FEXOFENADINE] |

Settings: human gut metagenome, 24 h, 2 µM
Remark: another data set of the same source

| Bacterial Biotransformation | Structure (SMILES) |
| --- | --- |
| Compound metabolized | COC(=O)Nc1nc2ccc(C(=O)c3ccccc3)cc2[nH]1 [MEBENDAZOLE] |
| Compound NOT metabolized | CC(C)(C(=O)O)c1ccc(C(O)CCCN2CCC(C(O)(c3ccccc3)c3ccccc3)CC2)cc1 (stereo not given) [FEXOFENADINE] |

Test: as §1, with “Z-014” for “Z-019”, “ERS12561814” for “ERS12561818”
Settings: 2 µM

| Bacterial Biotransformation | Structure (SMILES) |
| --- | --- |
| Compound NOT metabolized | COC(=O)Nc1nc2ccc(C(=O)c3ccccc3)cc2[nH]1 [MEBENDAZOLE] |
| Compound NOT metabolized | CC(C)(C(=O)O)c1ccc(C(O)CCCN2CCC(C(O)(c3ccccc3)c3ccccc3)CC2)cc1 (stereo not given) [FEXOFENADINE] |

Settings: human gut metagenome, 24 h, 2 µM
Remark: another data set of the same source

| Bacterial Biotransformation | Structure (SMILES) |
| --- | --- |
| Compound metabolized | COC(=O)Nc1nc2ccc(C(=O)c3ccccc3)cc2[nH]1 [MEBENDAZOLE] |
| Compound NOT metabolized | CC(C)(C(=O)O)c1ccc(C(O)CCCN2CCC(C(O)(c3ccccc3)c3ccccc3)CC2)cc1 (stereo not given) [FEXOFENADINE] |

Test: as §1, with “on Z-016” for “on Z-019”, “to mouse” for “to rat”, “number: ERS12561815” for “number: ERS12561818”
Settings: 2 µM

| Bacterial Biotransformation | Structure (SMILES) |
| --- | --- |
| Compound metabolized | COC(=O)Nc1nc2ccc(C(=O)c3ccccc3)cc2[nH]1 [MEBENDAZOLE] |
| Compound NOT metabolized | CC(C)(C(=O)O)c1ccc(C(O)CCCN2CCC(C(O)(c3ccccc3)c3ccccc3)CC2)cc1 (stereo not given) [FEXOFENADINE] |

Test: as §1, with “on Z-017” for “on Z-019”, “to mouse” for “to rat”, “number: ERS12561816” for “number: ERS12561818”
Settings: 2 µM

| Bacterial Biotransformation | Structure (SMILES) |
| --- | --- |
| Compound NOT metabolized | COC(=O)Nc1nc2ccc(C(=O)c3ccccc3)cc2[nH]1 [MEBENDAZOLE] |
| Compound NOT metabolized | CC(C)(C(=O)O)c1ccc(C(O)CCCN2CCC(C(O)(c3ccccc3)c3ccccc3)CC2)cc1 (stereo not given) [FEXOFENADINE] |

Test: as §1, with “on WLS-220” for “on Z-019”, “to human” for “to rat”, “number: ERS12561769” for “number: ERS12561818”
Settings: 2 µM

| Bacterial Biotransformation | Structure (SMILES) |
| --- | --- |
| Compound metabolized | COC(=O)Nc1nc2ccc(C(=O)c3ccccc3)cc2[nH]1 [MEBENDAZOLE] |
| Compound NOT metabolized | CC(C)(C(=O)O)c1ccc(C(O)CCCN2CCC(C(O)(c3ccccc3)c3ccccc3)CC2)cc1 (stereo not given) [FEXOFENADINE] |

Test: as §1, with “on Z-013” for “on Z-019”, “to rabbit” for “to rat”, “number: ERS12561813” for “number: ERS12561818”
Settings: 2 µM

| Bacterial Biotransformation | Structure (SMILES) |
| --- | --- |
| Compound metabolized | COC(=O)Nc1nc2ccc(C(=O)c3ccccc3)cc2[nH]1 [MEBENDAZOLE] |
| Compound NOT metabolized | CC(C)(C(=O)O)c1ccc(C(O)CCCN2CCC(C(O)(c3ccccc3)c3ccccc3)CC2)cc1 (stereo not given) [FEXOFENADINE] |

Test: as §1, with “on WLS-073” for “on Z-019”, “to human” for “to rat”, “number: ERS12561749” for “number: ERS12561818”
Settings: 2 µM

| Bacterial Biotransformation | Structure (SMILES) |
| --- | --- |
| Compound metabolized | COC(=O)Nc1nc2ccc(C(=O)c3ccccc3)cc2[nH]1 [MEBENDAZOLE] |
| Compound NOT metabolized | CC(C)(C(=O)O)c1ccc(C(O)CCCN2CCC(C(O)(c3ccccc3)c3ccccc3)CC2)cc1 (stereo not given) [FEXOFENADINE] |

Settings: human gut metagenome, 24 h, 2 µM
Remark: another data set of the same source

| Bacterial Biotransformation | Structure (SMILES) |
| --- | --- |
| Compound NOT metabolized | COC(=O)Nc1nc2ccc(C(=O)c3ccccc3)cc2[nH]1 [MEBENDAZOLE] |
| Compound NOT metabolized | CC(C)(C(=O)O)c1ccc(C(O)CCCN2CCC(C(O)(c3ccccc3)c3ccccc3)CC2)cc1 (stereo not given) [FEXOFENADINE] |

Test: as §1, with “on WLS-007” for “on Z-019”, “to human” for “to rat”, “number: ERS12561742” for “number: ERS12561818”
Settings: 2 µM

| Bacterial Biotransformation | Structure (SMILES) |
| --- | --- |
| Compound metabolized | COC(=O)Nc1nc2ccc(C(=O)c3ccccc3)cc2[nH]1 [MEBENDAZOLE] |
| Compound NOT metabolized | CC(C)(C(=O)O)c1ccc(C(O)CCCN2CCC(C(O)(c3ccccc3)c3ccccc3)CC2)cc1 (stereo not given) [FEXOFENADINE] |

Test: as §1, with “on WLS-038” for “on Z-019”, “to human” for “to rat”, “number: ERS12561745” for “number: ERS12561818”
Settings: 2 µM

| Bacterial Biotransformation | Structure (SMILES) |
| --- | --- |
| Compound metabolized | COC(=O)Nc1nc2ccc(C(=O)c3ccccc3)cc2[nH]1 [MEBENDAZOLE] |
| Compound NOT metabolized | CC(C)(C(=O)O)c1ccc(C(O)CCCN2CCC(C(O)(c3ccccc3)c3ccccc3)CC2)cc1 (stereo not given) [FEXOFENADINE] |

Test: as §1, with “Z-008” for “Z-019”, “to” for “to rat gut”, “ERS12561808” for “ERS12561818”
Settings: 2 µM

| Bacterial Biotransformation | Structure (SMILES) |
| --- | --- |
| Compound metabolized | COC(=O)Nc1nc2ccc(C(=O)c3ccccc3)cc2[nH]1 [MEBENDAZOLE] |
| Compound NOT metabolized | CC(C)(C(=O)O)c1ccc(C(O)CCCN2CCC(C(O)(c3ccccc3)c3ccccc3)CC2)cc1 (stereo not given) [FEXOFENADINE] |
